US7560466B2, “Methods of treating or preventing autoimmune diseases with 2,4-pyrimidinediamine compounds” (Rigel Pharmaceuticals, Inc., priority 2003, dated 2009)
Where two headings read alike, the source gives them in different places. One block for each molecule: values may come before it.

Tests used:
[1] = Plasma concentration in RPA reaction study (satellite / exposure); format: in vivo, mouse; conditions: for concentration at 5 h: pretreatment 1 hr; for Exposure = Pretreatment Time + 4 hours Plasma Concentration ± SEM / concentration at 4.5 h: pretreatment 0.5 hrs
Protocol: Pretreatment time, in which the test compounds are administered prior to Ab/Ag challenge, depends on the pharmacokinetic (PK) properties of each individual compound. Four hours after induction of Arthus reaction, mice are euthanized, and tissues are harvested for assessment of edema.
All compounds tested were administered by the oral route.

Syk kinase = target: T1, Syk kinase (Homo sapiens, UniProt P43405); experiment: Syk kinase biochemical fluorescence polarization assay; conditions: isolated Syk kinase, read-out: fp_syk, 11pt
T1 construct: purchased Upstate, Lake Placid N.Y
Protocol: Many of the 2,4-pyrimidinediamine compounds were tested for the ability to inhibit Syk kinase catalyzed phosphorylation of a peptide substrate in a biochemical fluorescenced polarization assay with isolated Syk kinase. In this experiment, Compounds were diluted to 1% DMSO in kinase buffer (20 mM HEPES, pH 7.4, 5 mM MgCl2, 2 mM MnCl2, 1 mM DTT, 0.1 mg/mL acetylated Bovine Gamma Globulin). Compound in 1% DMSO (0.2% DMSO final) was mixed with ATP/substrate solution at room temperature. Syk kinase (Upstate, Lake Placid N.Y.) was added to a final reaction volume of 20 uL, and the reaction was incubated for 30 minutes at room temperature. […] EDTA (10 mM final)/anti-phosphotyrosine antibody (1× final)/fluorescent phosphopeptide tracer (0.5× final) was added in FP Dilution Buffer to stop the reaction for a total volume of 40 uL according to manufacturer's instructions (PanVera Corporation) The plate was incubated for 30 minutes in the dark at room temperature. Plates were read on a Polarion fluorescence polarization plate reader (Tecan). Data were converted to amount of phosphopeptide present using a calibration curve generated by competition with the phosphopeptide competitor provided in the Tyrosine Kinase Assay Kit, Green (PanVera Corporation).
In Tabe 1, all reported values are IC50s (in μM).

[2] = system: cultured human mast cells (CHMC), ionomycin-induced degranulation; experiment: CHMC low cell density ionomycin activation: tryptase assay; format: cell-based; conditions: Homo sapiens, Mast cell, low cell density CHMC, ionomycin activation (2 μM final), 3pt, read-out: LD Tryptase, CHMC, Iono, 3pt
[3] = system: cultured human mast cells (CHMC), IgE-induced degranulation; experiment: CHMC low cell density IgE activation: tryptase assay; format: cell-based; conditions: Homo sapiens, Mast cell, low cell density CHMC
How it was run: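 Cord-blood CD34+-derived mucosal mast cells (SCF/IL-6 medium), 1000–1500 cells/well, preincubated with compound 1 h at 37°C, then anti-IgE stimulated 30 min at 37°C.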

[4] = C57BL/6, mouse, plasma, 5 mg/kg oral, read-out: Exposure = Pretreatment Time + 4 hours Plasma Concentration ± SEM

concentration at 5 h ([1]; C57BL/6, mouse, plasma, 2 mg/kg oral, read-out: Exposure = Pretreatment Time + 4 hours Plasma Concentration ± SEM): 4.3 ± 4.2 ng/mL
concentration at 5 h [1, 4]: 3.5 ± 5.3 ng/mL
concentration at 5 h ([1]; C57BL/6, mouse, plasma, 15 mg/kg oral, read-out: Exposure = Pretreatment Time + 4 hours Plasma Concentration ± SEM): 29.7 ± 25.9 ng/mL
IC50 (Syk kinase; 11pt): < 10 µM
Compound: Cn1c(N2CCOCC2)nc2cc(Nc3ncc(F)c(Nc4ccc5c(c4)NC(=O)C(C)(C)O5)n3)ccc21 [Compound 944, N4-(2,2-Dimethyl-3-oxo-4H-benz[1,4]oxazin-6-yl)-5-fluoro-N2-[1-methyl-2-(4-morpholino)benzimidazol-5-yl]-2,4-pyrimidinediamine]

concentration at 5.5 h ([1]; C57BL/6, mouse, plasma, 100 mg/kg oral, 90 minutes pretreatment, read-out: Exposure = Pretreatment Time + 4 hours Plasma Concentration ± SEM): 44.2 ± 8.9 ng/mL
concentration at 90 min ([1]; C57BL/6, mouse, plasma, 100 mg/kg oral, 90 minutes pretreatment, read-out: Satellite: At time of challenge Plasma Concentration ± SEM): 78.6 ± 26.4 ng/mL
IC50 (Syk kinase; 11pt): < 10 µM
Compound: COc1c(C)cc(Nc2ncc(F)c(Nc3ccc4c(c3)NC(=O)C(C)(C)O4)n2)cc1Cl [Compound 994]

Compound: COc1cc(Nc2ncc(F)c(Nc3ccc4c(n3)NC(=O)C(C)(C)O4)n2)cc(OC)c1OC [Compound 1007, N4-(2,2-Dimethyl-3-oxo-4H-5-pyrid[1,4]oxazin-6-yl)-5-fluoro-N2-(3,4,5-trimethoxyphenyl)-2,4-pyrimidinediamine]
Exposure = Pretreatment Time + 4 hours Plasma Concentration ± SEM ([1]; 0.1 mg/kg oral): BLQ
Exposure = Pretreatment Time + 4 hours Plasma Concentration ± SEM ([1]; 0.5 mg/kg oral): BLQ
concentration at 4.5 h ([1]; C57BL/6, mouse, plasma, 1 mg/kg oral, read-out: Exposure = Pretreatment Time + 4 hours Plasma Concentration ± SEM): 2.3 ± 0.9 ng/mL
concentration at 4.5 h [1, 4]: 19.8 ± 15.7 ng/mL

IC50 (Syk kinase; 11-point): < 10 µM
Compound: O=C1COc2ccc(Nc3ncc(F)c(Nc4ccc5c(c4)NC(=O)CO5)n3)cc2N1 [Compound 1083]

IC50 (Syk kinase; 4 uM ATP, 11pt): < 10 µM
Compound: COc1cc(Nc2ncc(F)c(Nc3ccc4c(n3)NCCO4)n2)cc(OC)c1OC [Compound 1145, N4-(3,4-Dihydro-2H,4H-5-pyrid[1,4]oxazin-6-yl)-5-fluoro-N2-(3,4,5-trimethoxyphenyl)-2,4-pyrimidinediamine]

IC50 [2]: > 10 µM
IC50 (Syk kinase; 4 uM ATP, 11pt): < 10 µM
IC50 ([3]; 3pt, read-out: LD Tryptase, CHMC, IgE, 3pt): < 10 µM
IC50 ([3]; 8pt, read-out: LD Tryptase, CHMC, IgE, 8pt): < 10 µM
Compound: COC(=O)CNC(=O)c1ccc(Nc2ncc(F)c(Nc3ccc4c(c3)NC(=O)C(C)(C)O4)n2)cc1 [Compound 1286]

IC50 (Syk kinase; 4 uM ATP, 11pt): < 10 µM
Compound: COC(=O)CCNC(=O)c1ccc(Nc2ncc(F)c(Nc3ccc4c(n3)NC(=O)C(C)(C)O4)n2)cc1 [Compound 1312, N4-(2,2-Dimethyl-3-oxo-4H-5-pyrid[1,4]oxazin-6-yl)-5-fluoro-N2-[4-[N-(2-methoxycarbonylethyl)aminocarbonyl]phenyl]-2,4-pyrimidinediamine]
